# Results reported in patent US20240270748A1 (Merck Patent GmbH, priority 2021, published 2024).
# Where a name gives a salt, the structure may show the parent alone.
# System: YAP-TEAD interaction
# Experiment: SK-HEP-1 reporter assay (8xTEAD responsive elements driving NanoLuc luciferase)
# Format: cell-based
# Conditions: Homo sapiens, SK-HEP1, SK-HEP-1 reporter assay; class symbols
# How it was run: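 SK-HEP-1 cells stably carrying 8×TEAD-driven NanoLuc treated in duplicate, 10-point dose from 30 μM final, 0.3% DMSO, 24 h at 37° C. Luminescence after NanoGlo lysis/substrate addition; IC50 calculated from dose response.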
row,SMILES,IC50
1,"Cn1cc2c3cc(C(=O)N4CC[C@@H](O)C4)ccc3n(-c3ccc(C(F)(F)F)cn3)c2n1 [Example C152, (3R)-1-{2-methyl-8-[5-(trifluoromethyl)pyridin-2-yl]-2H,8H-pyrazolo[3,4-b]indole-5-carbonyl}pyrrolidin-3-ol]",> 10000 nM
2,"CNc1ccc2c(c1)c1cn(C)nc1n2-c1ccc(C(F)(F)F)cc1 [Example C32, N,2-dimethyl-8-[4-(trifluoromethyl)phenyl]-2H,8H-pyrazolo[3,4-b]indol-5-amine]",100 to 10000 nM
3,"Cn1cc2c3nc(C(=O)NCCO)ccc3n(-c3ccc(C(F)(F)F)cc3)c2n1 [Example C113, N-(2-hydroxyethyl)-4-methyl-7-[4-(trifluoromethyl)phenyl]-4,5,7,12-tetraazatricyclo [6.4.0.0^2,6]dodeca-1(8),2,5,9,11-pentaene-11-carboxamide]",100 to 10000 nM
4,"COCCNC(=O)c1ccc2c(n1)c1cn(C)nc1n2-c1ccc(C(F)(F)F)cc1 [Example C112, N-(2-methoxyethyl)-4-methyl-7-[4-(trifluoromethyl)phenyl]-4,5,7,12-tetraazatricyclo [6.4.0.0^2,6]dodeca-1(8),2,5,9,11-pentaene-11-carboxamide]",100 to 10000 nM
5,"Cn1cc2c3cc(NC(=O)Cc4ccccn4)ccc3n(-c3ccc(C(F)(F)F)cc3)c2n1 [Example C22, N-{2-methyl-8-[4-(trifluoromethyl)-phenyl]-2H,8H-pyrazolo[3,4-b]indol-5-yl}-2-(pyridin-2-yl)acetamide]",> 10000 nM
6,"Cn1cc2c3cc(C(=O)NCCOC4CCNC4)ccc3n(-c3ccc(C(F)(F)F)cc3)c2n1 (centres unmarked) [Example C142, 2-methyl-N-[2-(pyrrolidin-3-yloxy)ethyl]-8-[4-(trifluoromethyl)phenyl]-2H,8H-pyrazolo[3,4-b]indole-5-carboxamide]",100 to 10000 nM
7,"CNCCC(=O)Nc1ccc2c(c1)c1cn(C)nc1n2-c1ccc(C(F)(F)F)cc1 [Example C222, N-{2-methyl-8-[4-(trifluoromethyl)-phenyl]-2H,8H-pyrazolo[3,4-b]indol-5-yl}-3-(methylamino)propanamide]",100 to 10000 nM
8,"COCC[C@H](CO)NC(=O)c1ccc2c(c1)c1c(C)snc1n2-c1ccc(C(F)(F)F)cc1 (single isomer, unassigned) [Example C93]",100 to 10000 nM
9,"Cc1snc2c1c1cc(C(=O)NC[C@H](O)C(F)(F)F)ccc1n2-c1ccc(C(F)(F)F)cc1 [Example C55, 3-methyl-N-[(2S)-3,3,3-trifluoro-2-hydroxypropyl]-8-[4-(trifluoro-methyl)phenyl]-8H-[1,2]thiazolo[3,4-b]indole-5-carboxamide]",100 to 10000 nM

# Further lines, results first:
row,IC50,SMILES
1,100 to 10000 nM,"Cc1snc2c1c1cc(C(=O)N[C@H](CO)C3CCC3)ccc1n2-c1ccc(C(F)(F)F)cc1 [Example C100, N-[(1S)-1-cyclobutyl-2-hydroxyethyl]-3-methyl-8-[4-(trifluoromethyl)phenyl]-8H-[1,2]thiazolo[3,4-b]indole-5-carboxamide]"
2,100 to 10000 nM,"Cn1cc2c3cc(C(=O)N=S4(=O)CC(C#N)C4)ccc3n(-c3ccc(C(F)(F)F)cc3)c2n1 (centres unmarked) [Example C178, N-(3-cyano-1-oxo-1¿6-thietan-1-ylidene)-2-methyl-8-[4-(trifluoromethyl)phenyl]-2H,8H-pyrazolo[3,4-b]indole-5-carboxamide]"
3,100 to 10000 nM,"Cn1cnc2c1c1cc(C3CC(n4ccnn4)=NO3)ccc1n2-c1ccc(C(F)(F)F)cc1 (centres unmarked) [Example C211, 1-(5-{1-methyl-4-[4-(trifluoromethyl)phenyl]-1H,4H-imidazo[4,5-b]indol-7-yl}-4,5-dihydro-1,2-oxazol-3-yl)-1H-1,2,3-triazole]"
4,100 to 10000 nM,CC(NC(=O)c1ccc2c(c1)c1cn(C)nc1n2-c1ccc(C(F)(F)F)cc1)c1c[nH]nn1 (centres unmarked) [Example B5]
5,100 to 10000 nM,"COCCS(=O)(CCN)=NC(=O)c1ccc2c(c1)c1cn(C)nc1n2-c1ccc(C(F)(F)F)cc1 (centres unmarked) [Example C146, N-[(2-aminoethyl)(2-methoxyethyl)oxo-λ^6-sulfanylidene]-2-methyl-8-[4-(trifluoromethyl)phenyl]-2H,8H-pyrazolo[3,4-b]indole-5-carboxamide]"
6,100 to 10000 nM,C[C@H](NC(=O)c1ccc2c(c1)c1cn(C)nc1n2-c1ccc(C(F)(F)F)cc1)c1ccnc(N)c1 [Example C264]
7,100 to 10000 nM,"Cn1cc2c3cc(C(=O)NC[C@H](O)C(F)(F)F)ccc3n(-c3ccc(C(F)(F)F)cc3)c2n1 [Example C133, 2-methyl-N-[(2S)-3,3,3-trifluoro-2-hydroxypropyl]-8-[4-(trifluoromethyl)phenyl]-2H,8H-pyrazolo[3,4-b]indole-5-carboxamide]"
8,10 to 100 nM,"Cn1cc2c3cc(C(=O)OCCS(C)(=N)=O)ccc3n(-c3ccc(C(F)(F)F)cc3)c2n1 (centres unmarked) [Example C29, 2-[imino(methyl)oxo-λ^6-sulfanyl]ethyl 2-methyl-8-[4-(trifluoromethyl)phenyl]-2H,8H-pyrazolo[3,4-b]indole-5-carboxylate]"
9,100 to 10000 nM,"Cn1cc2c3cc(NC(=O)CC4CCNC4)ccc3n(-c3ccc(C(F)(F)F)cc3)c2n1 (centres unmarked) [Example C223, N-{2-methyl-8-[4-(trifluoromethyl)-phenyl]-2H,8H-pyrazolo[3,4-b]indol-5-yl}-2-(pyrrolidin-3-yl)acetamide]"
10,100 to 10000 nM,"Cc1snc2c1c1cc(C(=O)N[C@H](CO)c3ccccn3)ccc1n2-c1ccc(C(F)(F)F)cc1 [Example C69, N-[(1S)-2-hydroxy-1-(pyridin-2-yl)ethyl]-3-methyl-8-[4-(trifluoromethyl)phenyl]-8H-[1,2]thiazolo[3,4-b]indole-5-carboxamide]"
11,100 to 10000 nM,CC(NC(=O)c1ccc2c(c1)c1cn(C)nc1n2-c1ccc(C(F)(F)F)cc1)c1ncc[nH]1 (centres unmarked) [Example B8]
12,100 to 10000 nM,"Cn1cc2c3cc(NC(=O)CC4(O)CNC4)ccc3n(-c3ccc(C(F)(F)F)cc3)c2n1 [Example C259, 2-(3-hydroxyazetidin-3-yl)-N-{2-methyl-8-[4-(trifluoromethyl)phenyl]-2H,8H-pyrazolo[3,4-b]indol-5-yl}acetamide Formate]"
13,100 to 10000 nM,"Cc1snc2c1c1cc(C(=O)NCc3nccn3C)ccc1n2-c1ccc(C(F)(F)F)cc1 [Example C79, 3-methyl-N-[(1-methyl-1H-imidazol-2-yl)methyl]-8-[4-(trifluoromethyl)phenyl]-8H-[1,2]thiazolo[3,4-b]indole-5-carboxamide]"
14,10 to 100 nM,"Cn1nc2c3cc(C(=O)N=[S@](=O)(CCO)Cc4cccnc4)ccc3n(-c3ccc(C(F)(F)F)cc3)c2n1 (single isomer, unassigned) [Example C235]"
15,100 to 10000 nM,"Cn1nc2c3cc(C4CC(n5ccnn5)=NO4)ccc3n(-c3ccc(C(F)(F)F)cc3)c2n1 (centres unmarked) [Example C232, 1-(5-{2-methyl-4-[4-(trifluoromethyl)phenyl]-3H,4H-[1,2,3]triazolo[4,5-b]indol-7-yl}-4,5-dihydro-1,2-oxazol-3-yl)-1H-1,2,3-triazole]"

# Same assay, conditions: Homo sapiens, SK-HEP1, SK-HEP-1 reporter assay; n.d. = value not detectable below threshold given in parentheses; ND = not determinable within the entire range
row,IC50,SMILES
1,> 10000 nM,"Cn1cc2c3cc(NS(=O)(=O)Cc4ccncc4)ccc3n(-c3ccc(C(F)(F)F)cc3)c2n1 [Example C128, N-{2-methyl-8-[4-(trifluoromethyl)phenyl]-2H,8H-pyrazolo[3,4-b]indol-5-yl}-1-(pyridin-4-yl)methanesulfonamide]"
2,> 1000 nM,"Cn1cc2c(n1)c1cc(S(=O)(=O)N3C[C@H](O)C[C@H]3c3ccccc3)ccc1n2-c1ccc(C(F)(F)F)cc1 (single isomer, unassigned) [Example C46]"
3,> 10000 nM,"Cn1cc2c3cc(S(=O)(=O)N4CCCC4)ccc3n(-c3ccc(C(F)(F)F)cc3)c2n1 [Example C84, 1-({2-methyl-8-[4-(trifluoromethyl)phenyl]-2H,8H-pyrazolo[3,4-b]indol-5-yl}sulfonyl)pyrrolidine]"
4,> 30000 nM,"C[C@@H](CO)NS(=O)(=O)c1ccc2c(c1)c1nnn(C)c1n2-c1ccc(C(F)(F)F)cc1 [Example C1, N-[(2S)-1-hydroxypropan-2-yl]-3-methyl-4-[4-(trifluoromethyl)phenyl]-3H,4H-[1,2,3]triazolo[4,5-b]indole-7-sulfonamide]"

# System: NCI-H226 cells
# Experiment: Viability assay in NCI-H226 (Yap-dependent) cells, CyQuant
# Format: cell-based, human
# Conditions: Homo sapiens, NCI-H226, 96 h, n.d. = value not detectable below threshold given in parentheses
# Description: Viability Assay in NCI-H226 (Yap-Dependent) and SW620 Yap KO (Yap Independent) Cells
# The ability of YAP-TEAD inhibitors to inhibit tumor cell growth was evaluated using two different cell lines: NCI-H226, which is a YAP dependent cell line, and SW620 cells, where YAP and TAZ were knocked out using CRISPR to generate a YAP independent cell line.
# For the assay, cells were treated in duplicates with the test compounds in a 10-point dose, 1:3 dilution steps, with the top concentration starting at 30 μM (final concentration in assay). After a 96 hour incubation at 37° C., 95% rH, and 5% CO2, a cell-permeant DNA-binding dye that stains only healthy cells (CyQUANT®, Promega) was added to the cells, allowing the quantification of cell viability.
# Cell Media: The NCI-H226 cells were cultured in the following media: RPMI 1640, +10% FBS, +1× GlutaMAX, +10 mM HEPES, +0.5% Pen/Strep. The SW620-KO cells were cultured in the following media: DMEM/F-12, +10% FBS, +1× GlutaMAX, +10 mM HEPES, +0.5% Pen/Strep.
# Reagents: The reagents used are listed below:
# Cell culture: The cells were examined using an inverted microscope to check for health, cell density, etc. To dissociate adherent cells, the monolayer of cells was washed once with pre-warmed PBS. After removing the PBS, 3 ml pre-warmed Accutase was added to a F75 flask, dispersed evenly and the flask was allowed to sit in incubator for ˜4-5 minutes.
# When a single cell suspension was obtained, 7 ml of prewarmed growth media was added and resuspended with the cells. The cell suspension was transferred to a sterile 15 ml conical centrifuge tube, and spun for 5 min at 300×g, RT. The supernatant was discarded and the pellet was resuspended in 10 ml of pre-warmed growth media.
# The total cell count was determined, and 20 μl of the desired cell number was added to each well of a 384 well plate using a Multidrop Combi. The plates were then incubated for 24 hours at 37° C., 95% rH, and 5% CO2.
# Compound treatment: 24 hours after seeding, the cells were treated with compounds.
# A 1:333 dilution of compounds, diluted in DMSO, was made to get a final concentration of 0.3% DMSO per well. To transfer the compounds to the assay plate, […] was shot from Labcyte low dead volume plates to the cell plates containing 20 μl media/well with the ECHO 555 liquid handling system.
# After treatment, the cells were fed with 20 μl fresh pre-warmed assay media using a Multidrop combi.
# The assay plates were then incubated for 96 h at 37° C., 95% rH, and 5% CO2.
# 96 h after treatment 30 μl of CyQuant® reagent was added to the assay plates using a Multidrop combi in the dark. The plates were then incubated for 1 hour at 37° C., 95% rH and 5% CO2. Thereafter, the assay plates were removed from the incubator and allowed to equilibrate to RT for 30 min in the dark without lid. Finally, they were measured using an EnVision microplate reader with a FITC bottom read program.
row,IC50,SMILES
1,> 3 nM,"Cn1cc2c3cc(NS(=O)(=O)Cc4ccncc4)ccc3n(-c3ccc(C(F)(F)F)cc3)c2n1 [Example C128, N-{2-methyl-8-[4-(trifluoromethyl)phenyl]-2H,8H-pyrazolo[3,4-b]indol-5-yl}-1-(pyridin-4-yl)methanesulfonamide]"
